Results from PubChem BioAssay (NCI).
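In this assay, cells in 96-well plates receive the compound at five concentrations for 48 hours. Endpoints are linearly interpolated between the surrounding concentrations. TGI marks complete inhibition of growth.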

What was measured:
Experiment in all cases: growth of human tumour cells (NCI), 48 h
786-0 renal = system: 786-0 renal
A498 renal = system: A498 renal
A549 NSCLC = system: A549 NSCLC
ACHN renal = system: ACHN renal
CCRF-CEM leukemia = system: CCRF-CEM leukemia
COLO 205 colon = system: COLO 205 colon
DMS 114 small cell lung = system: DMS 114 small cell lung
DMS 273 small cell lung = system: DMS 273 small cell lung
EKVX NSCLC = system: EKVX NSCLC
HCC-2998 colon = system: HCC-2998 colon
HCT-116 colon = system: HCT-116 colon
HCT-15 colon = system: HCT-15 colon
HL-60(TB) leukemia = system: HL-60(TB) leukemia
HOP-62 NSCLC = system: HOP-62 NSCLC
HOP-92 NSCLC = system: HOP-92 NSCLC
HT29 colon = system: HT29 colon
IGROV1 ovarian = system: IGROV1 ovarian
K-562 leukemia = system: K-562 leukemia
KM12 colon = system: KM12 colon
KM20L2 colon = system: KM20L2 colon
LOX IMVI melanoma = system: LOX IMVI melanoma
LXFL 529 NSCLC = system: LXFL 529 NSCLC
M14 melanoma = system: M14 melanoma
M19-MEL melanoma = system: M19-MEL melanoma
MALME-3M melanoma = system: MALME-3M melanoma
MOLT-4 leukemia = system: MOLT-4 leukemia
NCI-H226 lung = system: NCI-H226 lung
NCI-H23 lung = system: NCI-H23 lung
NCI-H460 lung = system: NCI-H460 lung
NCI-H522 lung = system: NCI-H522 lung
OVCAR-3 ovarian = system: OVCAR-3 ovarian
OVCAR-4 ovarian = system: OVCAR-4 ovarian
OVCAR-5 ovarian = system: OVCAR-5 ovarian
OVCAR-8 ovarian = system: OVCAR-8 ovarian
RPMI-8226 leukemia = system: RPMI-8226 leukemia
SF-268 CNS = system: SF-268 CNS
SF-295 CNS = system: SF-295 CNS
SF-539 CNS = system: SF-539 CNS
SK-MEL-2 melanoma = system: SK-MEL-2 melanoma
SK-MEL-28 melanoma = system: SK-MEL-28 melanoma
SK-MEL-5 melanoma = system: SK-MEL-5 melanoma
SK-OV-3 ovarian = system: SK-OV-3 ovarian
SN12C renal = system: SN12C renal
SNB-19 CNS = system: SNB-19 CNS
SNB-78 CNS = system: SNB-78 CNS
SR leukemia = system: SR leukemia
SW-620 colon = system: SW-620 colon
TK-10 renal = system: TK-10 renal
UACC-257 melanoma = system: UACC-257 melanoma
UACC-62 melanoma = system: UACC-62 melanoma
UO-31 renal = system: UO-31 renal
XF 498 CNS = system: XF 498 CNS
CAKI-1 renal = system: CAKI-1 renal
DLD-1 colon = system: DLD-1 colon
RXF 393 renal = system: RXF 393 renal
SNB-75 CNS = system: SNB-75 CNS
U251 CNS = system: U251 CNS

Measured: TGI

CC(=O)NNc1nc(C)c(C(=O)NNC(=O)C(=O)Nc2c(C)cccc2C(C)C)s1
> 100 µM: 786-0 renal | A498 renal | A549 NSCLC | ACHN renal | CCRF-CEM leukemia | COLO 205 colon | DMS 114 small cell lung | DMS 273 small cell lung | EKVX NSCLC | HCC-2998 colon | HCT-116 colon | HCT-15 colon | HL-60(TB) leukemia | HOP-62 NSCLC | HOP-92 NSCLC | HT29 colon | IGROV1 ovarian | K-562 leukemia | KM12 colon | KM20L2 colon | LOX IMVI melanoma | LXFL 529 NSCLC | M14 melanoma | M19-MEL melanoma | MALME-3M melanoma | MOLT-4 leukemia | NCI-H226 lung | NCI-H23 lung | NCI-H460 lung | NCI-H522 lung | OVCAR-3 ovarian | OVCAR-4 ovarian | OVCAR-5 ovarian | OVCAR-8 ovarian | RPMI-8226 leukemia | SF-268 CNS | SF-295 CNS | SF-539 CNS | SK-MEL-2 melanoma | SK-MEL-28 melanoma | SK-MEL-5 melanoma | SK-OV-3 ovarian | SN12C renal | SNB-19 CNS | SNB-78 CNS | SR leukemia | SW-620 colon | TK-10 renal | UACC-257 melanoma | UACC-62 melanoma | UO-31 renal | XF 498 CNS

CCCCN(CCCC)CC(C(=O)Nc1ccccc1)/C(C)=N\NC(=O)c1ccncc1 (centres undefined)
> 100 µM: 786-0 renal | A549 NSCLC | ACHN renal | CAKI-1 renal | COLO 205 colon | DLD-1 colon | DMS 114 small cell lung | DMS 273 small cell lung | HCC-2998 colon | HCT-116 colon | HCT-15 colon | HL-60(TB) leukemia | HOP-62 NSCLC | HOP-92 NSCLC | HT29 colon | IGROV1 ovarian | K-562 leukemia | KM12 colon | KM20L2 colon | LOX IMVI melanoma | M14 melanoma | M19-MEL melanoma | MALME-3M melanoma | MOLT-4 leukemia | NCI-H226 lung | NCI-H23 lung | NCI-H460 lung | NCI-H522 lung | OVCAR-3 ovarian | OVCAR-4 ovarian | OVCAR-5 ovarian | OVCAR-8 ovarian | RPMI-8226 leukemia | RXF 393 renal | SF-268 CNS | SF-295 CNS | SF-539 CNS | SK-MEL-28 melanoma | SK-MEL-5 melanoma | SK-OV-3 ovarian | SN12C renal | SNB-19 CNS | SNB-75 CNS | SNB-78 CNS | SR leukemia | SW-620 colon | TK-10 renal | U251 CNS | UACC-257 melanoma | UACC-62 melanoma | UO-31 renal | XF 498 CNS

O=C1N[C@H](Cc2cnc[nH]2)C(=O)N2CCC[C@@H]12
> 100 µM: 786-0 renal | A549 NSCLC | ACHN renal | CAKI-1 renal | CCRF-CEM leukemia | COLO 205 colon | DLD-1 colon | DMS 114 small cell lung | DMS 273 small cell lung | EKVX NSCLC | HCC-2998 colon | HCT-15 colon | HL-60(TB) leukemia | HOP-62 NSCLC | HOP-92 NSCLC | IGROV1 ovarian | K-562 leukemia | KM12 colon | KM20L2 colon | LOX IMVI melanoma | LXFL 529 NSCLC | M14 melanoma | M19-MEL melanoma | MALME-3M melanoma | MOLT-4 leukemia | NCI-H23 lung | NCI-H460 lung | NCI-H522 lung | OVCAR-3 ovarian | OVCAR-4 ovarian | OVCAR-5 ovarian | OVCAR-8 ovarian | RPMI-8226 leukemia | RXF 393 renal | SF-268 CNS | SF-295 CNS | SK-MEL-2 melanoma | SK-MEL-28 melanoma | SK-MEL-5 melanoma | SK-OV-3 ovarian | SN12C renal | SNB-19 CNS | SNB-75 CNS | SNB-78 CNS | SW-620 colon | TK-10 renal | UACC-257 melanoma | UACC-62 melanoma | UO-31 renal | XF 498 CNS
